Measured values from PubChem BioAssay AID1963833 (Molecular Pharmacology Branch, DTP, NCI, 2024).

System: 883617-216-R-J1-PDC complex spheroid viability
Assay: Anticancer human tumor 883617-216-R-J1-PDC patient-derived bladder carcinoma cell line growth inhibition [POLQ]
Details: for IC50: curve of first compound; for viability, T/C: stronger effect = lower value
Procedure: Multicellular complex tumor spheroid response to Polymerase (POL) inhibitors (novobiocin, ART-558, RP6685) in combination with a variety of drugs and investigational agents in selected tumor cell lines
The POL inhibitors (novobiocin, ART-558, and RP6685) were evaluated both individually and in combination with standard of care and investigational anticancer small molecules within a complex spheroid model of solid tumors. . Complex spheroids include a stromal component modeled by human endothelial cells (HUVEC) and fibroblasts modeled by human mesenchymal stem cells (MSCs). The concentration ranges selected for each drug and investigational agent were based upon clinically achievable concentrations if the clinical Cmax of the agent was known.
Compounds. The drugs and investigational agents: novobiocin (NSC847541), ART-558 (NSC835418), RP-6685 (NSC848927), peposertib (NSC802822), ceralasertib (NSC780249), elimusertib (NSC800525), camonsertib (NSC841442), AZD-1390 (NSC803789), olaparib (NSC753686), talazoparib (NSC767125), rucaparib (NSC756644), sotorasib (NSC818433), MRTX-1133 (NSC836407), SN-38 (NSC673596), topotecan (NSC609699), epotoside (NSC141540), doxorubicin (NSC123127), gemcitabine (NSC613327), 5-fluorouracil (NSC19893), paclitaxel (NSC125973), vemurafenib (NSC761431), MSA-2 (NSC828583), SN-011 (NSC837082), adavosertib (NSC754352), prexasertib (NSC758257), carboplatin (NSC241240) and oxaliplatin (NSC266046), were obtained from the National Cancer Institute (NCI) Developmental Therapeutics Program Chemical Repository (21). The FDA-approved anticancer drug set is available from the Developmental Therapeutics Program at https://dtp.cancer.gov/organization/dscb/obtaining/. […] The stock solutions were prepared in dimethyl sulfoxide (DMSO, Sigma-Aldrich, St. Louis, MO, cat. D2650), except for the platinum compounds which were prepared in saline (Quality Biological, Gaithersburg, MD, cat. 114-055-101), at 800-fold the tested concentration and stored at -70 degrees C prior to their use. All drugs and investigational agents were tested over a range starting from a high concentration at or near the clinical Cmax and decreasing in half-log increments. If the clinical Cmax for an agent had not been determined, the highest concentration tested was 10 microM, except for SN-38, which was tested at a high concentration of 1 microM.
Cell Culture. All cells were maintained in an incubator at 37 degrees C and 5% CO2 with 95% humidity. The PDC lines were cultured according to standard operating procedures established by the NCI PDMR (https://pdmr.cancer.gov). Table 3 of the manuscript, lists the cell lines along with the number of the three cell types plated to form the mct-spheroids and media for tumor cell growth. After thawing, all PDC lines, except 997537-175-T-J1-PDC and 415267-285-R-J2-PDC, were cultured in Matrigel-coated flasks prepared with a working solution of 1X Ham's F-12 nutrient mix, without supplementation (Thermo Fisher Scientific, cat. 11765054), 100 U/mL penicillin-streptomycin (Thermo Fisher Scientific, cat. 15140122), and 2.5% Matrigel (Corning Inc., Corning, NY, cat. 354248) for the first three passages. The two PDC lines 997537-175-T-J1-PDC and 415267-285-R-J2-PDC were cultured on uncoated flasks. The 857933-349-R-J2-PDC line was cultured in 6C/Colon 1B media containing advanced DMEM/F-12 (Thermo Fisher Scientific, cat. 12634028), 10 mM HEPES (Thermo Fisher Scientific, cat. 15630080), 1X GlutaMAX supplement (Thermo Fisher Scientific, cat. 35050061), 0.1 mg/mL primocin (InvivoGen, San Diego, CA, cat. ant-pm-2), 10% defined fetal bovine serum, heat inactivated (HyClone Laboratories Inc., Logan, UT, cat. SH30070.03HI), 50% L-WRN conditioned media (ATCC, cat. CRL-3276), 1.25 mM N-Acetyl-L-cysteine (Sigma-Aldrich, cat. A9165), 10 mM nicotinamide (Sigma-Aldrich, cat. N0636), 1X B-27 supplement (Thermo Fisher Scientific, cat. 17504044), 1X N-2 supplement (Thermo Fisher Scientific, cat. […]
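Further: spheroids exposed to compounds for seven days before readout.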
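Wherever viability, T/C is given: 100% = DMSO vehicle control viability.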

CC[C@@]1(O)C(=O)OCc2c1cc1n(c2=O)Cc2cc3c(CN(C)C)c(O)ccc3nc2-1 + Nc1ccc(C#CCN(C(=O)Cc2ncc(C(F)(F)F)cc2C(F)(F)F)c2ccc(F)cc2)nn1
IC50 (second compound 0.0316 µM): > 100 nM | IC50 (second compound 0.1 µM): > 100 nM | IC50 (second compound 0.316 µM): > 100 nM | IC50 (second compound 1 µM): > 100 nM | IC50 (second compound 3.16 µM): > 100 nM | IC50 (second compound 10 µM): > 100 nM | viability, T/C (second compound 0.0316 µM, first compound 0.000316 µM): 104% | viability, T/C (second compound 0.0316 µM, first compound 0.001 µM): 99.7% | viability, T/C (second compound 0.0316 µM, first compound 0.00316 µM): 99.6% | viability, T/C (second compound 0.0316 µM, first compound 0.01 µM): 84.8% | viability, T/C (second compound 0.0316 µM, first compound 0.0316 µM): 84.5% | viability, T/C (second compound 0.0316 µM, first compound 0.1 µM): 66.1% | viability, T/C (second compound 0.1 µM, first compound 0.000316 µM): 107% | viability, T/C (second compound 0.1 µM, first compound 0.001 µM): 99.6% | viability, T/C (second compound 0.1 µM, first compound 0.00316 µM): 93.3% | viability, T/C (second compound 0.1 µM, first compound 0.01 µM): 101% | viability, T/C (second compound 0.1 µM, first compound 0.0316 µM): 85.7% | viability, T/C (second compound 0.1 µM, first compound 0.1 µM): 68.1% | viability, T/C (second compound 0.316 µM, first compound 0.000316 µM): 97.3% | viability, T/C (second compound 0.316 µM, first compound 0.001 µM): 101% | viability, T/C (second compound 0.316 µM, first compound 0.00316 µM): 89.6% | viability, T/C (second compound 0.316 µM, first compound 0.01 µM): 81.1% | viability, T/C (second compound 0.316 µM, first compound 0.0316 µM): 87.3% | viability, T/C (second compound 0.316 µM, first compound 0.1 µM): 80.9% | viability, T/C (second compound 1 µM, first compound 0.000316 µM): 90.2% | viability, T/C (second compound 1 µM, first compound 0.001 µM): 104% | viability, T/C (second compound 1 µM, first compound 0.00316 µM): 101% | viability, T/C (second compound 1 µM, first compound 0.01 µM): 100% | viability, T/C (second compound 1 µM, first compound 0.0316 µM): 81.5% | viability, T/C (second compound 1 µM, first compound 0.1 µM): 69.7% | viability, T/C (second compound 3.16 µM, first compound 0.000316 µM): 102% | viability, T/C (second compound 3.16 µM, first compound 0.001 µM): 99% | viability, T/C (second compound 3.16 µM, first compound 0.00316 µM): 126% | viability, T/C (second compound 3.16 µM, first compound 0.01 µM): 102% | viability, T/C (second compound 3.16 µM, first compound 0.0316 µM): 75.1% | viability, T/C (second compound 3.16 µM, first compound 0.1 µM): 76.6% | viability, T/C (second compound 10 µM, first compound 0.000316 µM): 122% | viability, T/C (second compound 10 µM, first compound 0.001 µM): 119% | viability, T/C (second compound 10 µM, first compound 0.00316 µM): 116% | viability, T/C (second compound 10 µM, first compound 0.01 µM): 95% | viability, T/C (second compound 10 µM, first compound 0.0316 µM): 91.5% | viability, T/C (second compound 10 µM, first compound 0.1 µM): 91%
